In US20140350081A1, “INSECT G-COUPLED RECEPTORS USEFUL AS TARGETS FOR INSECTICIDES AND COMPOUNDS AND REAGENTS IDENTIFIED USING THE SAME” (priority 2011, published 2014):
Where two headings read alike, the source gives them in different places.

Legend:
[1] = target: AaDOP1 (Aedes aegypti, UniProt H6D5H1); test: CRELuc reporter dose-response in HEK293 cells stably expressing AaDOP1; assay type: cell-based; settings: HEK293 cells stably expressing CRELuc reporter and AaDOP1
[2] = target: T1, AaDOP2 (Aedes aegypti, UniProt H6D5H2); test: CRELuc reporter dose-response in HEK293 cells stably expressing AaDOP2; assay type: cell-based
T1 sequence (H6D5H2 entry or part of it): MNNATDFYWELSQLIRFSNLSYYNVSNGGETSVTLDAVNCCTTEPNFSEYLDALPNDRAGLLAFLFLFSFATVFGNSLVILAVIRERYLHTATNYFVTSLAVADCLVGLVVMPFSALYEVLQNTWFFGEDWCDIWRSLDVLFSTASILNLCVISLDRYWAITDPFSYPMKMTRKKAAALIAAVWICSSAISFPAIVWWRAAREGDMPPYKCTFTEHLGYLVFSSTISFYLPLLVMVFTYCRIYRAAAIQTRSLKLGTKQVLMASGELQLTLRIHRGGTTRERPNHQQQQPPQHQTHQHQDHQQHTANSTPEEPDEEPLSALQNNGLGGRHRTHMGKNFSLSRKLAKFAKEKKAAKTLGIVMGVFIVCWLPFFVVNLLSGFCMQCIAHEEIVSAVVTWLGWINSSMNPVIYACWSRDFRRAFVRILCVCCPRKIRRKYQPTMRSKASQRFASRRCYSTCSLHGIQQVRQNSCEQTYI

[3] = target: T1, AaDOP2; test: AaDOP2 agonist screen against the LOPAC1280 library; assay type: cell-based; settings: 10 μM compound; percent of response to 1 μM dihydrexidine
[4] = target: Isdop1 (Ixodes scapularis, UniProt A0ACM8FJJ0); test: cAMP accumulation in HEK 293 cells transiently expressing Isdop1; assay type: cell-based; settings: for intracellular cAMP compared to basal, Isdop1: 10 μM agonist, transient expression
[5] = target: T2, Isdop2 (Ixodes scapularis, UniProt A0ACM8DGL0); test: cAMP accumulation in HEK 293 cells transiently expressing Isdop2; assay type: cell-based; settings: for increase in cAMP, Isdop2: 10 μM agonist, transient expression
T2 sequence (A0ACM8DGL0 entry or part of it): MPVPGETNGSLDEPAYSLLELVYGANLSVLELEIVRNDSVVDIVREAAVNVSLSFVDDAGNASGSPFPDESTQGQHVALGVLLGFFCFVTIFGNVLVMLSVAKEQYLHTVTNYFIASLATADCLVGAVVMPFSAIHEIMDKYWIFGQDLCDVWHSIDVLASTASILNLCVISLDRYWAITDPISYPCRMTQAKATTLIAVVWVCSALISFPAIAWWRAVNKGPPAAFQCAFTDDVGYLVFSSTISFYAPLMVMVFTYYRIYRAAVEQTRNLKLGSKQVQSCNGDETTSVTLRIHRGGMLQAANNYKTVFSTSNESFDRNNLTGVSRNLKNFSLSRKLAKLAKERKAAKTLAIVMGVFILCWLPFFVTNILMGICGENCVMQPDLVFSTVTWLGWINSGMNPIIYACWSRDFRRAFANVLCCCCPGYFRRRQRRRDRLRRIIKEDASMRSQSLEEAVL

[6] = target: T1, AaDOP2; test: LOPAC1280 antagonist screen in HEK-CRELuc-Aadop2 cells; assay type: cell-based
[7] = target: T1, AaDOP2; test: HTRF cAMP accumulation concentration response assay (Cisbio Dynamic 2); assay type: cell-based; settings: AaDOP2 expressing cells in the presence of dopamine; No Inhibition = <10% inhibition at 3 μM test compound; read-out: IC50 ± S.E.M. (nM), HTRF cAMP assay
[8] = test system: Ae. aegypti L3 larvae; test: Ae. aegypti L3 concentration response and time course assays; assay type: in vivo, Aedes aegypti; settings: for LT50: 400 μM, L3 larval time course assay; for LC50: Aedes aegypti
Method: Briefly, chemistries were diluted to appropriate concentration in water and added to the wells of 24-well plates containing 5 L3 stage Ae. aegypti larvae to achieve a final concentration of 400, 200, 100, 50 and 25 μM in 1 ml sterile RO water. Chemistries were tested in quadruplicate at each concentration. […] Results reported here represent a minimum of three independent CRC experiments (i.e., n=3).

[9] = test system: adult male Blatella germanica; test: Cockroach contact assay (topical application); assay type: in vivo; settings: 200 mM compound
Text: (§1) A series of whole organism bioassays was developed to further evaluate the toxicity of chemistries to a range of agricultural, veterinary and public health pests and non-target insects (Tables 12 and 13). These assays are designed to rapidly explore the biological activity spectrum of chemistries as well as to facilitate initial investigations of the mode of action of insecticidal compounds. Briefly, assays were developed for the German cockroach (Blatella germanica, urban pest), termite (Reticulitermes flavipes; urban pest), lone star tick (Amblyomma americana; veterinary and public health pest), soybean aphid (Aphis glycines, agricultural pest) and honeybee (Apis mellifera; beneficial, non-target insect). The assays were designed to test the toxicity and speed of kill of multiple chemistries on contact. Each of these assays was performed as a single point dose experiment in triplicate using either topical application of compound to the ventral thorax ([…]; 50-80 μg effective dose depending on compound) as is the case for our cockroach and honeybee assays, or 10 second immersion in a solution of the compound diluted in water or DMSO:EtOH to a final concentration of 100 μM. The assays were conducted in 24-well plate format with mortality assessment following incubation at 22° C. as described above. Commercial insecticides were incorporated in these assays to provide a positive control and permit initial comparative analyses. Lead chemistries identified in our in vivo screen have been evaluated in the cockroach and termite assays.

[10] = test system: adult Reticulitermes flavipes; test: Termite immersion assay; assay type: in vivo; settings: in vivo
Text: A series of whole organism bioassays was developed to further evaluate the toxicity of chemistries to a range of agricultural, veterinary and public health pests and non-target insects (Tables 12 and 13). These assays are designed to rapidly explore the biological activity spectrum of chemistries as well as to facilitate initial investigations of the mode of action of insecticidal compounds. Briefly, assays were developed for the German cockroach (Blatella germanica, urban pest), termite (Reticulitermes flavipes; urban pest), lone star tick (Amblyomma americana; veterinary and public health pest), soybean aphid (Aphis glycines, agricultural pest) and honeybee (Apis mellifera; beneficial, non-target insect). The assays were designed to test the toxicity and speed of kill of multiple chemistries on contact. Each of these assays was performed as a single point dose experiment in triplicate using either topical application of compound to the ventral thorax (1 μl of a […] compound solution in 1:1 v:v DMSO:EtOH vehicle; 50-80 μg effective dose depending on compound) as is the case for our cockroach and honeybee assays, or 10 second immersion in a solution of the compound diluted in water or DMSO:[…] The assays were conducted in 24-well plate format with mortality assessment following incubation at 22° C. as described above. Commercial insecticides were incorporated in these assays to provide a positive control and permit initial comparative analyses. Lead chemistries identified in our in vivo screen have been evaluated in the cockroach and termite assays.

[11] = test system: adult male Blatella germanica; test: Cockroach assay of Table 16 (title contact assay, text feeding assay); assay type: in vivo; settings: 200 mM compound
Text: as §1

[12] = target: T2, Isdop2; test: cell-based; settings: read-out: % Inhibition (of response to dopamine), Isdop2 screen
[13] = test system: Ae. aegypti L3 larvae; test: whole plant or invertebrate; settings: Aedes aegypti
[14] = test system: Ae. aegypti L3 larvae; settings: 400 μM, three independent experiments
[15] = 10 μM biogenic amine, 300 nM propranolol, cAMP accumulation, mean±standard error
[16] = 0.5 h, read-out: mortality of the mosquito population within 30 minutes, 400 μM, L3 larvae
[17] = 0.5 h, read-out: percent mortality 0.5 hr, 400 uM, L3 larvae, value for this scoring time
[18] = 1 h, read-out: percent mortality 1 hr, 400 uM, L3 larvae, per scoring time
[19] = 2 h, read-out: percent mortality 2 hr, 400 uM, L3 larvae, per scoring time
[20] = 3 h, read-out: percent mortality 3 hr, 400 uM, L3 larvae, per scoring time
[21] = 4 h, read-out: percent mortality 4 hr, 400 uM, L3 larvae, per scoring time
[22] = 24 h, read-out: percent mortality 24 hr, 400 uM, L3 larvae, per scoring time
[23] = 48 h, read-out: Toxicity to Aedes aegypti larvae (mortality) 48 hours, 400 μM, L3 larvae, three independent experiments
[24] = 48 h, read-out: percent mortality 48 hr, 400 uM, L3 larvae, per scoring time
[25] = 72 h, read-out: Cumulative % Mortality (72 hrs), 400 uM, L3 larvae
[26] = 72 h, read-out: Toxicity to Aedes aegypti larvae (mortality) 72 hours, 400 μM, L3 larvae, three independent experiments
[27] = 72 h, read-out: percent mortality 72 hr, 400 uM, L3 larvae, per scoring time
[28] = HEK293 cells stably expressing CRELuc reporter and AaDOP2, ≧10 μM = lacks intrinsic activity, read-out: EC50 values AaDOP2

AaDOP1, sequence (H6D5H1 entry or part of it): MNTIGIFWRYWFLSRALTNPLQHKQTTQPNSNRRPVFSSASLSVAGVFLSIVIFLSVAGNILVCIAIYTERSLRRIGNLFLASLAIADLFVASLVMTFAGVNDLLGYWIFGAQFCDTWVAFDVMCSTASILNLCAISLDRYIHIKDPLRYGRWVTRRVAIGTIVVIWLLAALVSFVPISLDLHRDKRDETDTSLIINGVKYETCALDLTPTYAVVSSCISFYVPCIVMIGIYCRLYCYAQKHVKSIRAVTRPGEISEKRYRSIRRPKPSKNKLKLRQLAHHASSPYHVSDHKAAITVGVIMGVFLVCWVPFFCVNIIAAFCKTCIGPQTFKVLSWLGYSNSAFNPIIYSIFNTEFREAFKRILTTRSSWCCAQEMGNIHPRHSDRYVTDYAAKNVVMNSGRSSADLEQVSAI

Row | Structure (SMILES) | EC50 [1] | % of DHX [3] | IC50 [7] | LT50 [8] | % Mortality 24 hrs [9] | % Mortality 48 hrs [9] | % Mortality 72 hrs [9] | % Mortality 120 hrs [9] | % Mortality 240 hrs [9] | % Mortality 24 hrs [11] | % Mortality 48 hrs [11] | % Mortality 72 hrs [11] | % Mortality 120 hrs [11] | mortality at 400 µM [13, 16] | mortality at 400 µM [13, 17] | mortality at 400 µM [13, 18] | mortality at 400 µM [13, 19] | mortality at 400 µM [13, 20] | mortality at 400 µM [13, 21] | mortality at 400 µM [13, 22] | other results
1 | Oc1cc2c(cc1O)[C@H]1c3ccccc3CN[C@@H]1CC2 (racemic) [Dihydrexidine] | 6.9 ± 1.5 nM | 116% | – | – | – | – | – | – | – | – | – | – | – | – | – | – | – | – | – | – | EC50 ([2]; HEK293 cells stably expressing CRELuc reporter and AaDOP2, read-out: EC50 values AaDOP2): 290 ± 54 nM
2 | NCC(O)c1ccc(O)cc1 (racemic) [Octopamine] | – | – | – | – | – | – | – | – | – | – | – | – | – | – | – | – | – | – | – | – | EC50 ([1]; ≧10 μM = lacks intrinsic activity): ≥ 10000 nM; EC50 [2]: ≥ 10000 nM; Stimulatory response (fold-over-basal) Isdop1 [4, 15]: 1.01 ± 0.07 fold-over-basal; Stimulatory response (fold-over-basal) Isdop2 [5, 15]: 1.20 ± 0.24 fold-over-basal
3 | CCNC(=O)N1CCN(CCCC(c2ccc(F)cc2)c2ccc(F)cc2)CC1 [Amperozide, 4-[4,4-bis(4-fluorophenyl)butyl]-N-ethylpiperazine-1-carboxamide] | – | – | 570 ± 110 nM | 42 min | 0% | 0% | 0% | 5% | 5% | 0% | 0% | 3% | 7% | > 70% | 90% | 0% | 0% | 0% | 0% | 0% | % of the SCH23390 effect ([6]; 10 μM compound, 300 nM dopamine, quadruplicate): 83%; % inhibition of DA activity (Aedes cell-based assay screen) ([6]; LOPAC1280 screen hits): 83%; mortality of adult termites [10]: 70-100%; inhibition at 10 µM [12]: 69%; mortality at 400 µM [13, 23]: 93%; mortality at 400 µM [13, 24]: 0%; mortality at 400 µM [13, 25]: 100%; mortality at 400 µM [13, 26]: 93%; mortality at 400 µM [13, 27]: 0%
4 | CN1CC2c3ccccc3Oc3ccc(Cl)cc3C2C1 (stereo not drawn) [Asenapine] | – | – | 0.3 ± 0.06 nM | 30 min | 5% | 5% | 10% | 10% | 10% | 17% | 20% | 27% | 27% | > 70% | 70% | 20% | 10% | 0% | 0% | 0% | LC50 [8]: 40000 nM; Toxicity to Aedes aegypti larvae (mortality) 24 hours [14]: 100%; mortality at 400 µM [13, 23]: 100%; mortality at 400 µM [13, 24]: 0%; mortality at 400 µM [13, 25]: 100%; mortality at 400 µM [13, 26]: 100%; mortality at 400 µM [13, 27]: 0%; mortality at 400 µM ([13]; […], read-out: percent mortality […], 400 uM, L3 larvae, per scoring time): 0%
5 | CN(C)CCCN1c2ccccc2Sc2ccc(Cl)cc21 [Chlorpromazine] | – | – | 17 nM | 178 min | 3% | 10% | 10% | 14% | 17% | 7% | 17% | 17% | 20% | > 70% | 70% | 0% | 10% | 0% | 0% | 10% | LC50 [8]: 92000 nM; inhibition at 10 µM [12]: 92%; Toxicity to Aedes aegypti larvae (mortality) 24 hours [14]: 100%; mortality at 400 µM [13, 23]: 100%; mortality at 400 µM [13, 24]: 0%; mortality at 400 µM [13, 25]: 100%; mortality at 400 µM [13, 26]: 100%; mortality at 400 µM [13, 27]: 0%
6 | Oc1cc2c(cc1O)C(c1ccccc1)CNCC2 (stereo not drawn) [SKF 38393] | 310 ± 46 nM | < 10% | – | – | – | – | – | – | – | – | – | – | – | – | – | – | – | – | – | – | EC50 [2, 28]: ≥ 10000 nM; intracellular cAMP compared to basal, Isdop1 [4]: modest, yet significant increases; increase in cAMP, Isdop2 [5]: ca. two-fold-over-basal
7 | Oc1cc2c(c(Cl)c1O)CCNCC2c1ccccc1 (stereo not drawn) [SKF 81297] | 24 ± 7 nM | 38% | – | – | – | – | – | – | – | – | – | – | – | – | – | – | – | – | – | – | EC50 [2, 28]: ≥ 10000 nM; intracellular cAMP compared to basal, Isdop1 [4]: modest, yet significant increases; increase in cAMP, Isdop2 [5]: ca. two-fold-over-basal
